Laboratory results as given in patent publication US7056491B2, “Monoterpenes and sesquiterpenes as chemotherapeutic and radiation sensitizers and immunomodulators” (Wisconsin Alumni Research Foundation, priority 2000, dated 2006).

Legend:
[1] = test system: DU145 prostate cancer cells; test: Clonogenic survival assay, POH with or without radiation, DU145; format: cell-based, human
Protocol: (§1) Subconfluent cultures of prostate cancer cell line DU145 were treated with 0.1–0.5 mM of POH for 72 hours and subsequently to increasing doses of radiation from 0.1 Gy to 8.5 Gy. Control cells were treated with the indicated doses of radiation alone. The cells were harvested and an optimum number of cells were allowed to grow for 14 days. The resulting colonies were stained and counted. Each graphed point represents mean values ± SE values of triplicate dishes.
(§2) Table 1 summarizing data from different cell lines treated with radiation, radiation plus POH, and POH alone. Subconfluent cultures of human glioma (T98G, M059K, U251), prostate (DU145, PC3), colon (DLD-1, HT29) and pancreatic (MIAPACA) cancer cell lines were treated with 0.1–0.5 mM of POH for 72 hours and subsequently to increasing doses of radiation from 0.1 Gy to 8.5 Gy. Control cells were treated with medium alone. The cells were harvested and an optimum number of cells were allowed to grow for 14 days. The resulting colonies were stained and counted. Each graphed point represents mean values ± SE values of triplicate dishes. Percentage survival was determined as the ratio of plating efficiencies for each irradiated group to that of the unirradiated control.

DLD-1 colon cancer cells = test: Clonogenic survival assay, POH with or without radiation, DLD-1; format: cell-based, human
Protocol: as §2

T98G cells = test: Clonogenic survival assay, POH with or without radiation, T98G; format: cell-based, human
Excerpt: Cell Line: The T98G cell line was derived from a resection specimen obtained from a patient with glioblastoma multiforme. T98G cells express endogenous mutant p53 and introduction of wild-type p53 sensitizes these cells to radiation. The radioresistance of this cell line has also been attributed to the presence of high intracellular levels of GSH, which down-regulates NFκB binding activity after exposure to ionizing radiation. A clonogenic survival assay was used to assess the response to treatment in vitro, as it is a measure of reproductive capacity.
Clonogenic Survival Assays: The T98G cell line was obtained from ATCC and maintained in DMEM-F12 medium containing 10% fetal bovine serum, 1% penicillin, streptomycin and 1 mM non-essential amino acids in a humidified incubator at 37° C. Stock solution of POH was made in the medium. One set of plates was treated with graded doses of POH (0.1 mM to 1 mM) for a period of 72 hours. Control dishes were treated with medium alone. All cells were irradiated at a dose rate of 7.5Gy/min using a CS-137 irradiator with single doses ranging from 1 Gy to 8.5Gy. The range of radiation doses used encompasses that used to treat patients.
Following irradiation, both POH treated and untreated cells were harvested by trypsinization and washed with PBS. Cells were incubated for two weeks after initial plating, fixed with methanol, stained with crystal violet and the number of colonies per dish quantitated. Survival was determined as the ratio of plating efficiencies for each irradiated group to that of the unirradiated control.
as §1, with “human glioma” for “prostate cancer”, “T98G” for “DU145”, “Perillyl Alcohol” for “POH”, “medium” for “the indicated doses of radiation”
as §2

[2] = test system: PC3 prostate cancer cells; test: Clonogenic survival assay, POH with or without radiation, PC3; format: cell-based, human
Protocol: as §1, with “FIGS. 2–14 illustrates additional work with other monoterpenes and cell lines. […] Subconfluent” for “Subconfluent”, “cultures” for “cultures of”, “PC3” for “DU145”, “growth” for “grow”
as §2

[3] = test system: glioma and prostate cancer cell lines; test: Augmentation of CD95 (Fas)-mediated apoptosis with anti-CD95 antibody CH11; format: cell-based; conditions: T98G, U87, U353, U251; 1 mM POH with CH11, absence of cycloheximide
Protocol: Referring to FIG. 25, semiconfluent cultures of glioma and prostate cancel cell lines were treated with the 1 mM POH in the presence or absence of the anti-CD95 antibody CH11 (100 ng/ml), radiation (8.5 Gy for T98G, U87MG, U373 and 5.5 Gy for PC3 and DU145), cycloheximide (CX) or a combination of all for a period of 72 hours. Cells treated with cycloheximide and anti-Fas served as a positive control. The death by treating cells with 1 mM POH or radiation alone was also quantitated. The estimation of apoptosis was done by staining the harvested cells with propidium iodide as described before. Each graphed point in the figure represents the average values of duplicate samples.

[4] = test system: 21–26 kD proteins, including small GTP-binding proteins; conditions: dose dependent, distal to HMG-CoA reductase; cited from earlier work

## C=C(C)[C@@H]1CC=C(CO)CC1 [POH, Perillyl alcohol]
[1]; 0.1 mM POH 72 h, no radiation
  % SURVIVAL: 0.648 ± 0.008%
[1]; 0.1 mM POH + 5.5 Gy
  % SURVIVAL: 0.044 ± 0.00157%
[1]; 0.3 mM POH 72 h, no radiation
  % SURVIVAL: 0.456 ± 0.0112%
[1]; 0.3 mM POH + 5.5 Gy
  % SURVIVAL: 0.026 ± 0.00076%
[1]; 0.5 mM POH 72 h, no radiation
  % SURVIVAL: 0.207 ± 0.005%
[1]; 0.5 mM POH + 5.5 Gy
  % SURVIVAL: 0.017 ± 0.005%
DLD-1 colon cancer cells; 0.1 mM POH 72 h, no radiation
  % SURVIVAL: 1.690 ± 0.100%
DLD-1 colon cancer cells; 0.1 mM POH + 5.5 Gy
  % SURVIVAL: 0.038 ± 0.009%
DLD-1 colon cancer cells; 0.3 mM POH 72 h, no radiation
  % SURVIVAL: 0.899 ± 0.070%
DLD-1 colon cancer cells; 0.3 mM POH + 5.5 Gy
  % SURVIVAL: 0.050 ± 0.003%
DLD-1 colon cancer cells; 0.5 mM POH 72 h, no radiation
  % SURVIVAL: 0.019 ± 0.001%
DLD-1 colon cancer cells; 0.5 mM POH + 5.5 Gy
  % SURVIVAL: 0.001 ± 0.001%
T98G cells
  concentration with the most pronounced radiosensitization: 0.5 mM
  lowest concentration at which radiosensitization was observed: 0.1 mM
T98G cells; 0.1 mM POH 72 h, no radiation
  % SURVIVAL: 0.755 ± 0.016%
T98G cells; 0.1 mM POH + 5.5 Gy
  % SURVIVAL: 0.130 ± 0.002%
T98G cells; 0.3 mM POH 72 h, no radiation
  % SURVIVAL: 0.660 ± 0.024%
T98G cells; 0.3 mM POH + 5.5 Gy
  % SURVIVAL: 0.066 ± 0.004%
T98G cells; 0.5 mM POH 72 h, no radiation
  % SURVIVAL: 0.500 ± 0.006%
T98G cells; 0.5 mM POH + 5.5 Gy
  % SURVIVAL: 0.037 ± 0.014%
T98G cells; pretreatment before and during irradiation
  sensitization to radiation induced cell death: dose dependent sensitization
[2]; 0.1 mM POH 72 h, no radiation
  % SURVIVAL: 0.734 ± 0.038%
[2]; 0.1 mM POH + 5.5 Gy
  % SURVIVAL: 0.007 ± 0.0009%
[2]; 0.3 mM POH 72 h, no radiation
  % SURVIVAL: 0.366 ± 0.017%
[2]; 0.3 mM POH + 5.5 Gy
  % SURVIVAL: 0.003 ± 0.0058%
[2]; 0.5 mM POH 72 h, no radiation
  % SURVIVAL: 0.244 ± 0.009%
[2]; 0.5 mM POH + 5.5 Gy
  % SURVIVAL: 0.001 ± 0.00067%
[3]
  sensitization to Fas mediated apoptosis: sensitized
[4]
  isoprenylation of 21–26 kD proteins: inhibit isoprenylation
